Reference: article PMC5349447, “Applying a high-throughput fluorescence polarization assay for the discovery of chemical probes blocking La:RNA interactions in vitro and in cells” (PLoS ONE, 2017)
“Also recorded” adds a separate entry of the source.

Tests used:
La-WT:fD1-RNA complex = tested on: T1, La-WT:fD1-RNA complex; assay: EMSA, compound competition, La-WT:fD1; assay type: binding, human; settings: La-WT 60 nM, fD1 50 nM
T1 construct: His; made in house; host or cells: E. coli BL21
Experimental: (§1) 12% native TBE polyacrylamide gels were prepared in a Mini-PROTEAN Tetra Handcast System (BioRad). The gel was pre-run for 30 min at 140 V in 1x TBE buffer (45 mM Tris/HCl pH 8.5, 45 mM boric acid, 1 mM EDTA). To prepare the RNA-mix, fluorescence labeled RNA oligoribonucleotides (oligos) were diluted in fluorescence polarization buffer (20 mM Tris/HCl (pH 7.4), 150 mM NaCl, 3.0 mM MgCl2, 0.5 mM EDTA, 0.05% (v/v) IGEPAL), mixed for 10 min at 80°C, and then immediately placed on ice for at least 5 min. All RNA oligos were used at a final concentration of 50 nM. Recombinant La protein was diluted in D-buffer (20 mM Tris/ HCl (pH 7.4), 150mM NaCl, 3mM MgCl2, 0.5mM EDTA, 5% glycerol) and placed on ice until use.
La titration was performed at final concentrations of 20, 40, 60, 100, 200, 300, 400, 500, 600 nM La. Three different La concentrations were used for compound studies: 60 nM for fD1 RNA, 200 nM for fPolyU RNA, and 150 nM for TOPf RNA studies. Two μl of diluted compound (diluted in 100% DMSO) or 2 μl 100% DMSO (control reaction) was combined with 8 μl La-mix in a 96-well plate. 10 μl RNA-mix was added, mixed for 2 min, and incubated for 10 min at RT in the dark. Final concentrations in the reaction: 18 mM Tris/HCl (pH 7.4), 135 mM NaCl, 2.7 mM MgCl2, 0.45 mM EDTA, 0.025% (v/v) IGEPAL, 2% glycerol, 10% DMSO). Samples were loaded onto the pre-run gel without any loading buffer. Gels were run at 160 V for 40 min in the dark. The gels were carefully transferred to a clear plastic wrap and scanned using a Typhoon FLA900 imager. The La-RNA complex (La-RNP) formation was quantified using the ImageQuant TL software.
Next we used our established EMSA to test whether compound C2 and C6 can compete against the three RNA oligos: fD1, fPolyU, and TOPf. All of the EMSA reactions were loaded in the following order: lane 1 contains the RNA oligo alone; lane 2 contains the RNA oligo plus La protein at concentration that shifts 50% of the RNA oligo (positive control); lanes 3–9 contain the RNA oligo, La protein and decreasing concentrations of the compound; and lane 10 contains the RNA oligo and the highest compound concentration (negative control).

MRC5 cells = assay: Cell toxicity, CyQUANT cell number, MRC5; assay type: cell-based, human; settings: 48 h, up to 150 μM
Experimental: (§2) Normal fibroblast MRC5 and human embryonic kidney HEK293 cells were purchased from ATCC. Head and neck squamous cell carcinoma cell lines UM-SCC 22A (SCC 22A) and UM-SCC 22B (SCC 22B) were described elsewhere. MRC5 cells were cultured in EMEM plus 10% FBS; SCC 22A, SCC 22B, and HEK293 cells were cultured in advanced DMEM (Gibco) containing 2 mM L-glutamine (Life Technology) and 10% FBS. All cell lines were tested for mycoplasma contamination by applying a MycoSensor PCR Assay kit according to the manufacturer’s instructions (Agilent Technologies).
(§3) To test for cell toxicity the compounds were dissolved in 100% DMSO to a concentration of 100 mM. Subsequently, compounds were diluted in media to 10 mM (10% DMSO), 1 mM (1% DMSO) and tested at 150, 125, 100, 75, 50, 25 μM in SCC 22B and MRC5 cells. To reach this concentration compounds (stock 1 mM, 1% DMSO) were diluted in the cell culture dish (96-well format, 100 μl final volume) as follows: 150 μM = 6.7 fold (final DMSO: 0.15%); 125 μM = 8.0 fold (final DMSO: 0.125%); 100 μM = 10 fold (final DMSO: 0.1%); 75 μM = 13.3 fold (final DMSO: 0.075%); 50 μM = 20 fold (final DMSO: 0.05%); and 25 μM = 40 fold (final DMSO: 0.025%). As a control the highest DMSO concentration of 0.15% was used. Cells were cultured in appropriate media (see above) for 48h. Subsequently, cells were washed twice with 1x PBS and quantified after staining with fluorescence dye (CyQUANT®, Life Technologies). For this experiments 3x10^4 of MRC5 and 1x10^4 SCC 22B cells were plate the day before the experiment.

SCC 22B cells = assay: Cell toxicity, CyQUANT cell number, SCC 22B; assay type: cell-based, human; settings: for effect on SCC 22B cell numbers: 12.5-150 μM
Experimental: as §2, §3

La:TOPf complex = tested on: T2, La:TOPf complex; assay: EMSA, compound competition, La-WT:TOPf; assay type: binding, human; settings: TOPf 50 nM
T2 construct: His; made in house; host or cells: E. coli BL21
Experimental: as §1
(§4) La titration was performed at final concentrations of 20, 40, 60, 100, 200, 300, 400, 500, 600 nM La. Three different La concentrations were used for compound studies: 60 nM for fD1 RNA, 200 nM for fPolyU RNA, and 150 nM for TOPf RNA studies. Two μl of diluted compound (diluted in 100% DMSO) or 2 μl 100% DMSO (control reaction) was combined with 8 μl La-mix in a 96-well plate. 10 μl RNA-mix was added, mixed for 2 min, and incubated for 10 min at RT in the dark. […] The La-RNA complex (La-RNP) formation was quantified using the ImageQuant TL software. […]

La-RRM1+2:fD1 complex = assay: EMSA, compound competition, La-RRM1+2:fD1; assay type: binding, human; settings: La-RRM1+2 60 nM, fD1 50 nM
Experimental: as §1, §4

SMILES | competition for La:fD1 interaction (EMSA), in words (La-WT:fD1-RNA complex) | toxic effect on MRC5 cells (normal fibroblasts) (MRC5 cells) | tolerance by SCC 22B cells (SCC 22B cells; 50 μM, 48 hours) | cytotoxic concentration in SCC 22B cells (SCC 22B cells; 48 h) | selectivity: cancer cell numbers compared to effect on normal MRC5 cells (SCC 22B cells; SCC 22B versus MRC5, 48 h) | concentration inhibiting La:fD1 complex formation (EMSA) (La-WT:fD1-RNA complex) [µM] | concentration blocking La-WT:TOPf complex formation (EMSA) (La:TOPf complex; La-WT 150 nM) [µM] | concentration blocking La-RRM1+2:fD1 complex formation (EMSA) (La-RRM1+2:fD1 complex) [µM] | effect on SCC 22B cell numbers (SCC 22B cells; 48 h) | concentration impairing La:fD1 complex formation (EMSA) (La-WT:fD1-RNA complex; highest concentration tested) [mM] | impairment of La:TOPf complex formation (EMSA), in words (La:TOPf complex; La-WT 200 nM)
Cc1ccc(C(=O)c2ccccc2C(=O)O)c(O)c1 [C2.01, 2-(2-hydroxy-4-methylbenzoyl)benzoic acid] | lower concentration; also recorded: weak competitor | no toxic effect | well tolerated | higher than 50 μM | preferentially reduced cancer cell numbers | – | – | – | – | – | –
CCOC(=O)c1ccc2c(c1)C1C=CCC1C(C(=O)O)N2 (stereo not drawn) [C6, 8-(ethoxycarbonyl)-3a,4,5,9b-tetrahydro-3Hcyclopenta[c]quinoline-4-carboxylic acid] | – | toxic effect | – | – | – | 10 | 10 | 10 | reduced SCC 22B cell numbers even at low concentrations | – | –
O=C(O)c1ccccc1C(=O)c1ccc(O)cc1O [C2, 2-(2,4-dihydroxybenzoyl)benzoic acid] | – | no toxic effect | – | – | – | – | – | 5000 | no effect | 10 | only at the highest concentration tested
